According to patent US20100130441A1, “USE OF VITAMIN B12 FOR TREATMENT OF MUCOSAL LESIONS” (priority 2007, published 2010):
“Also recorded” adds a separate entry of the source.

Key:
[1] = series of up to 12 injections with 5 mg; cited from earlier work
[2] = test system: pernicious anemia patients presenting with tobacco amblyopia (optic neuropathy); conditions: four patients; parenteral; cyanocobalamin 0.25-1 mg per month, then changed to hydroxocobalamin; cited from earlier work
[3] = test system: geriatric patients; conditions: cited from earlier work
[4] = cited from earlier work
[5] = test system: dialysis patients; conditions: cited from earlier work
[6] = test system: sleep-waking rhythm disorders; conditions: 1.5 to 3 mg/day for 8 weeks, n=13; cited from earlier work
[7] = test system: recurrent aphthous stomatitis (RAS) patients; conditions: cited from earlier work
[8] = test system: recurrent aphthous stomatitis (RAS) patients; test: Double-blind, placebo-controlled, randomized clinical trial of vitamin B12 in RAS; assay type: in vivo, human
[9] = test system: recurrent aphthous stomatitis (RAS) patients; test: Clinical experience: 15 RAS patients treated with vitamin B12 over four years; assay type: in vivo, human
Experimental: Fifteen patients suffering from RAS were treated with vitamin B12 in our clinics over a period of four years. In most cases they have presented to the clinic with unrelated symptoms, and the oral ulcers were incidental findings on physical examination. Patients were asked whether oral ulcers were a recurring problem. Before initiating vitamin B12 therapy, a complete blood count was done and plasma vitamin B12 and folic acid levels were assessed by routine procedures.
We used one of two therapeutic regimens: • IM injections of vitamin B12 (1000 mcg weekly for the first month, and then 1000 mcg monthly as maintenance therapy) for patients with serum vitamin B12 level below 100 pg/ml, for patients with peripheral neuropathy or macrocytic anemia, and for patients coming from a low socioeconomic level (in Israel, IM vitamin B12 treatment is cheaper than oral vitamin B12). • 2. One sublingual vitamin B12 tablet (1000 mcg) per day. • No other treatment was given for RAS throughout the treatment and follow-up periods. The follow-up period ranged from 3 months to 4 years.

## hydroxocobalamin
[1]
  Acne formation (cases): Ten
[2]
  Effect on haematological and visual abnormalities: the visual impairment also improved

## cyanocobalamin
[3]; 1 mg intramuscular weekly for 1 month, then monthly for minimum 6 months
  Cognitive functions: cognitive recovery in some patients
[3]; 1 mg intramuscular weekly then monthly
  Adverse effects: no adverse effects were reported
[4]; Ellenbogen & Cooper, 1991
  Carcinogenic, mutagenic or teratogenic potential: no reports attributing carcinogenic or mutagenic or teratogenic potential
[2]
  Effect on haematological and visual abnormalities: restored the haematological, but not the visual abnormalities

## vitamin B12 (cobalamin)
[5]; 2.5 mg vitamin B12 in multivitamin preparation, 3 years
  Adverse effects: no adverse effects were reported
[5]; 106 patients, multivitamin preparation with 2.5 mg vitamin B12 at end of each dialysis period during 3 years
  Serum vitamin B12 levels at the end of the treatment period: 4 times greater than normal
[4]; 1-5 mg every fortnight or month, up to at least 5 years, patients with compromised absorption
  Adverse effects of long-term oral and parenteral supplementation: without any identified adverse effects
[4]; healthy individuals, EC Scientific Committee on Food opinion
  Adverse effects of excess vitamin B12 intake from food or supplements: no adverse effects
[4]; oral or intramuscular dosages between 1-5 mg
  Adverse effects in replacement therapy: no supportive evidence of adverse effects
[4]; up to 1000 mcg/day orally, patients with compromised B12 absorption
  Adverse effects of prolonged oral treatment: adverse effects have not been reported
[6]
  Adverse effects: no adverse effects recorded
[7]; three patients with low serum vitamin B12
  Clinical response of RAS to vitamin B12 administration: rapid improvement and complete recovery within several weeks
[7]; three patients
  Recurrence of RAS at six months' follow up: no recurrence of RAS
[8]; double-blind, placebo-controlled, randomized
  Safety and effectiveness of vitamin B12 therapy for RAS: confirmed the safety and effectiveness; also recorded: established the safety and effectiveness
[8]; pain, number of ulcers, duration of outbreak
  Dependence of patient outcome on initial level of vitamin B12: did not depend on initial level of vitamin B12
[9]; 2 deficient, 3 marginal, 10 normal level patients
  Outcome of treatment by initial vitamin B12 level (deficient or borderline vs normal): no difference in the outcome of treatment
[9]; 15 RAS patients, IM 1000 mcg weekly then monthly or sublingual 1000 mcg per day, mean treatment 10.8 ± 9.7 months, before treatment 1.5 ± 1.2
  Frequency of RAS during treatment (episodes/month), Mean: 0.1 ± 0.3 episodes/month
[9]; 15 RAS patients, before treatment range 0.3-4.0
  Frequency of RAS during treatment (episodes/month), Range: 0-1.0 episodes/month
[9]; IM vitamin B12
  Aphthous ulcers in two non-adherent patients once they received regular IM injections: disappeared completely
[9]; of 15 patients
  Patients reporting pronounced reduction in the frequency and severity of RAS episodes: four
